Experimental data taken from patent US9951055B2, “Thiazole-based inhibitors of scavenger receptor BI” (THE BROAD INSTITUTE, INC., priority 2012, dated 2018).

Legend:
Plasma protein binding = format: in vitro ADME; details: human plasma; read-out: plasma protein binding, bound (converted)
[1] = Cell cytotoxicity assay (CellTiter-Glo); format: cell-based, Chinese hamster; details: Chinese hamster, ldlA[mSR-BI] cells; after 24 hours of treatment
Experimental: It is possible that a compound will cause cells to decrease HDL-mediated DiI uptake due to nonspecific consequences of cellular toxicity, representing a second class of false positive hits. The cells were treated with compounds for 3 hours or 24 hours, and then cell viability was measured using the CellTiter-Glo Assay (Promega), a luciferase-based reagent that measures cellular ATP levels. The compounds were tested at different concentrations to determine IC50 values. […] Compounds that were active in the primary assay but toxic below 30 μM at 24 hours (but nontoxic at 3 hours) were still considered. […] Data were normalized against DMSO and the positive control (1 μM BLT-1) in Genedata Assay Analyzer.
All available dry powder samples of the remaining, non-quenching compounds were procured from commercial sources and purities were determined. The compounds obtained were then retested in the primary assay and in the cytotoxicity assays. We wanted to rule out any compounds that were cytotoxic, especially in the 3-hour time span of the primary DiI-HDL uptake assay. Therefore, compounds were tested in ldlA[mSR-BI]cells for cytotoxicity at 3 hours and 24 hours using the CellTiter-Glo assay (Promega) that measures cellular ATP as a marker of cell viability. […] Compounds were screened for inhibition of endocytosis using labeled transferrin, which is known to bind the transferrin receptor, enter cells by clathrin-mediated endocytosis, and move to endosomes before being recycled to the cell surface. The BLT compounds have also been tested for potential interference with endocytosis and show no such activity.

murine SR-BI [2] = target: T1, murine SR-BI (Mus musculus, UniProt Q61009); experiment: DiI-HDL uptake assay (primary assay); format: cell-based
T1 construct: expressed in transfected cells; host or cells: ldlA[mSR-BI]; (CHO ldlA7 derivative lacking the LDL receptor)
T1 sequence (Q61009 1-509): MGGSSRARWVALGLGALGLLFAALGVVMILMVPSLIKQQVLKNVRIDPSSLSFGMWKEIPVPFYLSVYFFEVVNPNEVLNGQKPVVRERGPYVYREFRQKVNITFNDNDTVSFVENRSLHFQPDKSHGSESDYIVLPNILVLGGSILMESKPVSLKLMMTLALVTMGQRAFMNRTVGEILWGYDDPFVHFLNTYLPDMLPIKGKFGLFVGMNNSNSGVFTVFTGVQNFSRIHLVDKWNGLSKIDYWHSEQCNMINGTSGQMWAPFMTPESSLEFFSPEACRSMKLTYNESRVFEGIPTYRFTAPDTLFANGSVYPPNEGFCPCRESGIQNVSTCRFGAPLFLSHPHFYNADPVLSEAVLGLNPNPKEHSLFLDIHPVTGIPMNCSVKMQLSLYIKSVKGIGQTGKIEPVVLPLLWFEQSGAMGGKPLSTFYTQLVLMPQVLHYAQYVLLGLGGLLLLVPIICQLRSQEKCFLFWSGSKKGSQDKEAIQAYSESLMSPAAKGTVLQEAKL
Source text: The following cell lines were used in this study: • ldlA[mSR-BI] is a Chinese hamster ovary (CHO) cell line that overexpresses murine SR-BI, isoform 1 (NP_058021) and was obtained from the Assay Provider (Krieger Laboratory). This cell line was used for the primary assay and several secondary assays. […] This cell line was obtained from the Assay Provider. Assays DiI-HDL Uptake Assay (Primary Assay AID Nos. 488896, 493194, 540354 588392, 588553, 588548, 588754, 588828, 588833)
ldlA[mSR-BI]cells were plated into 384-well plates at 30 μl per well and incubated overnight. As a measurable surrogate for cholesterol uptake, human HDL particles were treated with the lipophilic fluorescent dye DiI and exposed to ldlA[mSR-BI]cells in lipoprotein-free media (Ham's F12/0.5% fatty acid-free Bovine Serum Albumin (BSA)/25 mM HEPES pH 7.4 plus 10 μg protein/ml DiI-HDL). Cells took up the DiI via SR-BI over 3 hours in the presence of compound. After significant uptake of the DiI, the cells became fluorescent. The level of fluorescence correlates with the amount of DiI uptake and can be measured with a standard plate reader (here a PerkinElmer EnVision plate reader was used). The uptake of lipid (represented by DiI) was inhibited by the positive control compound BLT-1 or with an excess of HDL untreated with DiI. Primary HTS data were analyzed in Genedata Screener Assay Analyzer, and were normalized against DMSO and the positive control (1 μM BLT-1). For the HTS, the average of two replicates was used to rank order activity and to choose compounds for retests. For dose studies, percent (%) activity was determined for each concentration and the concentration response curves (CRCs) were generated with Genedata Condeseo.
To identify novel inhibitors, SR-BI-mediated lipid uptake was measured in an engineered cell line that minimized potential uptake by other mechanisms, including via the LDL receptor (1). ldlA[mSR-BI]cells overexpress murine isoform 1 and selectively take up HDL lipid at similar levels as “has been reported for cultured mouse adrenal cells, perfused organs, and liver, adrenal gland and ovary in vivo” (1). This primary cell-based assay was used in a pilot screen that identified BLTs 1 through 5 (12). The assay was slightly modified from the original protocol of Nieland et al. to increase throughput and to ease automation procedures.

murine SR-BI [3] = target: T1, murine SR-BI; experiment: DiI-HDL uptake assay with extended washout; format: cell-based; details: after a 4-hour washout period
Experimental: DiI-HDL Uptake Assay with Extended Washout (SA 5: AID No. 602154)
This is another modification of the primary assay where cells are pretreated with compound but no compound is present during a 4-hour washout period or the subsequent 3-hour DiI-HDL treatment period. […] Cells were treated with compound for 3 hours, then were washed four times with PBS, once with lipoprotein-free media (Ham's F12/0.5% fatty acid-free Bovine Serum Albumin [BSA]/25 mM HEPES pH 7.4), and then returned to the incubator with lipoprotein-free media for 4 hours. Media were then removed and cells were washed with PBS before fresh lipoprotein-free media (Ham's F12/0.5% fatty acid-free Bovine Serum Albumin [BSA]/25 mM HEPES pH 7.4) was added with […] DiI-HDL. Cells took up the DiI via SR-BI over 3 hours in the absence of compound. After significant uptake of the DiI, the cells became fluorescent. The level of fluorescence correlates with the amount of DiI uptake and can be measured with a standard plate reader. The uptake of lipid (represented by DiI) was inhibited by the compound BLT-1 or with an excess of HDL untreated with DiI.

## COCC(=O)N1CCc2cc(-c3csc(NC(=O)c4cc(OC)cc(OC)c4)n3)ccc21 [Compound 137, 3,5-Dimethoxy-N-(4-(1-(2-methoxyacetyl)indolin-5-yl)thiazol-2-yl)benzamide]
Plasma protein binding
  fraction unbound: 0.065
[1]
  EC50 at 24 h: > 35000 nM
Murine SR-BI [2]
  higher potency than ITX-5061: approximately 15 fold
  improved potency over the original hit: > 20 fold
  selectivity: greater than 1000
Murine SR-BI [2]; read-out: IC50, DiI-HDL uptake
  IC50: 2 nM

## CCCCCCC1CCCC1=NNC(N)=S (centres unmarked) [BLT-1, reference compound]
Murine SR-BI [2]; 1 μM, positive control in primary HTS
  reduction in signal (DiI-HDL uptake): > 2.2 fold
Murine SR-BI [3]
  IC50: 0.6 nM
